Results from patent US12029739B2, “SHP2 inhibitor and use thereof” (KANAPH THERAPEUTICS INC., priority 2021, dated 2024).
Read-outs that look alike come from different tables or passages of the source.

Key:
SHP2 (full length) = target: T1, SHP2 (full length) (Homo sapiens, UniProt Q06124); test: Phosphatase assay (PTPase assay) with DiFMUP substrate; format: biochemical; conditions: SHP2 activated with SHP2 activating peptide, DiFMUP 80 μM, 2 hours, fluorescence
T1 construct: SHP2 (full length, diluted to 100 pM final concentration in reaction buffer, BPS bioscience, US); purchased BPS bioscience, US
T1 sequence (Q06124 1-593): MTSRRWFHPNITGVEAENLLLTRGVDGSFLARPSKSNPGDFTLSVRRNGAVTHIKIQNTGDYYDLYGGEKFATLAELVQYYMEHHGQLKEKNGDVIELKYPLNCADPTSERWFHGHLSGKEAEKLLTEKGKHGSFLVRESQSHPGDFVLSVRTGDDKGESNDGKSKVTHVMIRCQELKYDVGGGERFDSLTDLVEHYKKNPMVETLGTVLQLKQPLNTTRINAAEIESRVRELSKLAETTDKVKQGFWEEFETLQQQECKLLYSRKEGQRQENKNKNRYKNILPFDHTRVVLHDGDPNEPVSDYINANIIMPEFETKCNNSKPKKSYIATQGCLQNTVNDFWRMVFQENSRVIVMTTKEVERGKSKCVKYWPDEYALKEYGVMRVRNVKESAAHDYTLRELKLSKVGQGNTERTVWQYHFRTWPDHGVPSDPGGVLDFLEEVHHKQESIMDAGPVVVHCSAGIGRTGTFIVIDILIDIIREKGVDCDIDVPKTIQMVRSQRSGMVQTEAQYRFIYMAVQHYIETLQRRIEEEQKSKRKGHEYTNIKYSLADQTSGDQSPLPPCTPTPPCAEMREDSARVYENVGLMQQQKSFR

[1] = system: phospho-ERK in MIA PaCa2 or H358 cells; test: Phospho-ERK assay (AlphaLisa); format: cell-based
[2] = 1.5 h, MIA PaCa2 or H358 cells, compound incubated 1.5 hours, read-out: IC50 (p-ERK)
[3] = MIA PaCa2 or H358 cells, compound incubated 1.5 hours, read-out: IC50 (p-ERK)
[4] = 1.5 h, read-out: IC50 (p-ERK, nM)

Row | IC50 (SHP2 (full length); read-out: IC50 (PTPase aS say)) | IC50 [1, 2] | Compound | IC50 [1, 3] | IC50 (SHP2 (full length); IC50 (PTPase aS say, nM)) | IC50 [1, 4]
1 | 3 to 100 nM | 45 to 1500 nM | C[C@@H]1OCC2(CCN(c3cnc(Sc4ccc5ncn(CC(F)(F)F)c(=O)c5c4Cl)cn3)CC2)[C@@H]1N [Example 75, 6-((5-((3S,4S)-4-amino-3-methyl-2-oxa-8-azaspiro[4.5]decan-8-yl)pyrazin-2-yl)thio)-5-chloro-3-(2,2,2-trifluoroethyl)quinazolin-4(3H)-one] | – | – | –
2 | < 3 nM | < 45 nM | C[C@@H]1OCC2(CCN(c3cnc(Sc4ccc5ncn(Cc6nc7ccccc7o6)c(=O)c5c4Cl)cn3)CC2)[C@@H]1N [Example 47, 6-((5-((3S,4S)-4-amino-3-methyl-2-oxa-8-azaspiro[4.5]decan-8-yl)pyrazin-2-yl)thio)-3-(benzooxazol-2-ylmethyl)-5-chloroquinazolin-4(3H)-one] | – | – | –
3 | < 3 nM | < 45 nM | COc1cccc(Cn2cnc3ccc(Sc4cnc(N5CCC6(CC5)CO[C@@H](C)[C@H]6N)cn4)c(Cl)c3c2=O)c1F [Example 70, 6-((5-((3S,4S)-4-amino-3-methyl-2-oxa-8-azaspiro[4.5]decan-8-yl)pyrazin-2-yl)thio)-5-chloro-3-(2-fluoro-3-methoxybenzyl)quinazolin-4(3H)-one] | – | – | –
4 | < 3 nM | < 45 nM | COC(C)Cn1cnc2ccc(Sc3ncc(N4CCC5(CC4)Cc4ncsc4[C@H]5N)nc3N)c(Cl)c2c1=O (stereo partly drawn) [Example 176] | – | – | –
5 | 3 to 100 nM | 45 to 1500 nM | C[C@@H]1OCC2(CCN(c3cnc(Sc4ccc5ncn(CCN6CCCC6)c(=O)c5c4Cl)cn3)CC2)[C@@H]1N [Example 89] | – | – | –
6 | > 100 nM | > 1500 nM | Cn1c(N2CCCN(CCN)CC2)nc(N)c(Sc2cccc(Cl)c2Cl)c1=O [Example 200, 6-amino-2-(4-(2-aminoethyl)-1,4-diazepan-1-yl)-5-((2,3-dichlorophenyl)thio)-3-methylpyrimidin-4(3H)-one] | – | – | –
7 | 3 to 100 nM | 45 to 1500 nM | C[C@@H]1OCC2(CCN(c3cnc(Sc4ccc5ncn(CC(C)(C)F)c(=O)c5c4Cl)cn3)CC2)[C@@H]1N [Example 139, 6-((5-((3S,4S)-4-amino-3-methyl-2-oxa-8-azaspiro[4.5]decan-8-yl)pyrazin-2-yl)thio)-5-chloro-3-(2-fluoro-2-methylpropyl)quinazolin-4(3H)-one] | – | – | –
8 | 3 to 100 nM | 45 to 1500 nM | COCCn1cnc2ccc(Sc3nc(C(N)=O)c(N4CCC5(CC4)CO[C@@H](C)[C@H]5N)nc3N)c(Cl)c2c1=O [Example 154, 5-amino-3-[(3S,4S)-4-amino-3-methyl-2-oxa-8-azaspiro[4.5]decan-8-yl]-6-[5-chloro-3-(2-methoxyethyl)-4-oxo-quinazolin-6-yl]sulfanyl-pyrazine-2-carboxamide] | – | – | –
9 | < 3 nM | < 45 nM | C[C@@H]1OCC2(CCN(c3cnc(Sc4ccc5ncn(CCC(F)(F)F)c(=O)c5c4Cl)cn3)CC2)[C@@H]1N [Example 113] | – | – | –
10 | < 3 nM | < 45 nM | CC(C)(O)Cn1cnc2ccc(Sc3cnc(N4CCC5(CC4)Cc4scnc4[C@H]5N)cn3)c(Cl)c2c1=O [Example 160, 6-[5-[(4S)-4-amino[4,6-dihydrocyclopenta[d]thiazole-5,4′-piperidin]-1′-yl]pyrazin-2-yl]sulfanyl-5-chloro-3-(2-hydroxy-2-methyl-propyl)quinazolin-4-one] | – | – | –
11 | < 3 nM | < 45 nM | CC(=O)NCCn1cnc2ccc(Sc3cnc(N4CCC5(CC4)CO[C@@H](C)[C@H]5N)cn3)c(Cl)c2c1=O [Example 115] | – | – | –

The remaining lines, values behind:

Row | Compound | IC50 (SHP2 (full length); read-out: IC50 (PTPase aS say)) | IC50 [1, 2] | IC50 [1, 3] | IC50 (SHP2 (full length); IC50 (PTPase aS say, nM)) | IC50 [1, 4]
12 | CCOC(=O)c1cccc(Sc2c(N)nc(N3CCC(C)(N)CC3)n(C)c2=O)c1Cl [Example 2, ethyl 3-((4-amino-2-(4-amino-4-methylpiperidin-1-yl)-1-methyl-6-oxo-1,6-dihydropyrimidin-5-yl)thio)-2-chlorobenzoate] | > 100 nM | – | 45 to 1500 nM | – | –
13 | Cc1nc2ccc(Sc3cnc(N4CCC(C)(CN)CC4)cn3)c(Cl)c2c(=O)n1Cc1ccccc1 [Example 23, 6-((5-(4-(aminomethyl)-4-methylpiperidin-1-yl)pyrazin-2-yl)thio)-3-benzyl-5-chloro-2-methylquinazolin-4(3H)-one] | 3 to 100 nM | 45 to 1500 nM | – | – | –
14 | C[C@@H]1OCC2(CCN(c3cnc(Sc4cccc(S(=O)(=O)F)c4Cl)cn3)CC2)[C@@H]1N [Example 11, 3-((5-((3S,4S)-4-amino-3-methyl-2-oxa-8-azaspiro[4.5]decan-8-yl)pyrazin-2-yl)thio)-2-chlorobenzenesulfonyl fluoride] | – | – | – | < 3 nM | < 45 nM
15 | COCCn1cnc2ccc(Sc3cnc(N4CCC5(CC4)CO[C@@H](C)[C@H]5N)n4ccnc34)c(Cl)c2c1=O [Example 182, 6-((5-((3S,4S)-4-amino-3-methyl-2-oxa-8-azaspiro[4.5]decan-8-yl)imidazo[1,2-c]pyrimidin-8-yl)thio)-5-chloro-3-(2-methoxyethyl)quinazolin-4(3H)-one] | 3 to 100 nM | – | 45 to 1500 nM | – | –
16 | COCCn1cnc2ccc(Sc3ccc(N4CCC5(CC4)CO[C@@H](C)[C@H]5N)cn3)c(Cl)c2c1=O [Example 181, 6-((5-((3S,4S)-4-amino-3-methyl-2-oxa-8-azaspiro[4.5]decan-8-yl)pyridin-2-yl)thio)-5-chloro-3-(2-methoxyethyl)quinazolin-4(3H)-one] | 3 to 100 nM | – | 45 to 1500 nM | – | –
17 | C[C@@H]1OCC2(CCN(c3cnc(Sc4ccc5ncn(CC(O)CO)c(=O)c5c4Cl)cn3)CC2)[C@@H]1N (stereo partly drawn) [Example 122, 6-((5-((3S,4S)-4-amino-3-methyl-2-oxa-8-azaspiro[4,5]decan-8-yl)pyrazin-2-yl)thio)-5-chloro-3-(2,3-dihydroxypropyl)quinazolin-4(3H)-one] | < 3 nM | – | < 45 nM | – | –
18 | COc1cccc(Cn2cnc3ccc(Sc4cnc(N5CCC6(CC5)CO[C@@H](C)[C@H]6N)cn4)c(Cl)c3c2=O)c1 [Example 36, 6-((5-((3S,4S)-4-amino-3-methyl-2-oxa-8-azaspiro[4.5]decan-8-yl)pyrazin-2-yl)thio)-5-chloro-3-(3-methoxybenzyl)quinazolin-4(3H)-one] | < 3 nM | < 45 nM | – | – | –
19 | Cc1nc2ccc(Sc3cnc(N4CCC(C)(CN)CC4)cn3)c(Cl)c2c(=O)[nH]1 [Example 22, 6-((5-(4-(aminomethyl)-4-methylpiperidin-1-yl)pyrazin-2-yl)thio)-5-chloro-2-methylquinazolin-4(3H)-one] | 3 to 100 nM | 45 to 1500 nM | – | – | –
20 | CC1(CN)CCN(c2cnc(Sc3cccc(S(=O)(=O)F)c3Cl)cn2)CC1 [Example 6, 3-((5-(4-(aminomethyl)-4-methylpiperidin-1-yl)pyrazin-2-yl)thio)-2-chlorobenzenesulfonyl fluoride] | – | – | – | 3 to 100 nM | 45 to 1500 nM
21 | C[C@@H]1OCC2(CCN(c3cnc(Sc4ccc5ncn(Cc6ccncn6)c(=O)c5c4Cl)cn3)CC2)[C@@H]1N [Example 45, 6-((5-((3S,4S)-4-amino-3-methyl-2-oxa-8-azaspiro[4.5]decan-8-yl)pyrazin-2-yl)thio)-5-chloro-3-(pyrimidin-4-ylmethyl)quinazolin-4(3H)-one] | < 3 nM | < 45 nM | – | – | –
22 | CC1(N)CCN(c2cnc(Sc3cccc(S(=O)(=O)F)c3Cl)cn2)CC1 [Example 7, 3-((5-(4-amino-4-methylpiperidin-1-yl)pyrazin-2-yl)thio)-2-chlorobenzenesulfonyl fluoride] | – | – | – | 3 to 100 nM | 45 to 1500 nM
23 | Cn1c(N2CCC(C)(N)CC2)nc(N)c(Sc2cccc(C(=O)O)c2Cl)c1=O [Example 27, 3-((4-amino-2-(4-amino-4-methylpiperidin-1-yl)-1-methyl-6-oxo-1,6-dihydropyrimidin-5-yl)thio)-2-chlorobenzoic acid] | > 100 nM | > 1500 nM | – | – | –
24 | COCCn1cnc2ccc(Sc3cnc(N4CCC5(CC4)Cc4ccccc4[C@H]5N)cn3)c(Cl)c2c1=O [Example 84, (S)-6-((5-(1-amino-1,3-dihydrospiro(indene-2,4′-piperidin]-1′-yl)pyrazin-2-yl)thio)-5-chloro-3-(2-methoxyethyl)quinazolin-4(3H)-one] | < 3 nM | – | < 45 nM | – | –
25 | C[C@@H]1OCC2(CCN(c3cnc(Sc4ccc5ncn(Cc6ccccc6F)c(=O)c5c4Cl)cn3)CC2)[C@@H]1N [Example 43, 6-((5-((3S,4S)-4-amino-3-methyl-2-oxa-8-azaspiro[4.5]decan-8-yl)pyrazin-2-yl)thio)-5-chloro-3-(2-fluorobenzyl)quinazolin-4(3H)-one] | < 3 nM | < 45 nM | – | – | –
26 | Cn1cc2c(Cl)c(Sc3cnc(N4CCC(C)(N)CC4)cn3)ccc2n1 [Example 25, 1-(5-((4-chloro-2-methyl-2H-indazol-5-yl)thio)pyrazin-2-yl)-4-methylpiperidin-4-amine] | 3 to 100 nM | 45 to 1500 nM | – | – | –
27 | Cn1cnc2ccc(Sc3cnc(N4CCC(C)(CN)CC4)cn3)c(Cl)c2c1=O [Example 15, 6-((5-(4-(aminomethyl)-4-methylpiperidin-1-yl)pyrazin-2-yl)thio)-5-chloro-3-methylquinazolin-4(3H)-one] | 3 to 100 nM | 45 to 1500 nM | – | – | –
